One data set deals with T1, CDK2/CycE (Homo sapiens, UniProt P24941).
T1 construct: GST; purchased Dr. Dieter Marmé, Klinik für Tumorbiologie, Freiburg (obtained from an outside laboratory); host or cells: baculovirus-infected Sf9 insect cells
Put plainly: CDK2/CycE kinase assay. The data set is classed as biochemical. The settings on record: recombinant CDK2/CycE-GST, histone IIIS substrate, 0.5 μm ATP, 15 minutes at 22° C. The method, then: Recombinant CDK2- and CycE-GST-fusion proteins, purified from baculovirus-infected insect cells (Sf9), were obtained by Dr. Dieter Marmé, Klinik für Tumorbiologie [Clinic for Tumor Biology], Freiburg. Histone IIIS, which was used as a kinase substrate, was purchased by the Sigma Company.
CDK2/CycE (50 ng/measuring point) was incubated for 15 minutes at 22° C. in the presence of various concentrations of test substances (0 μm, as well as within the range of 0.01-100 μm) in assay buffer [50 mmol of tris/HCl pH 8.0, 10 mmol of MgCl2, 0.1 mmol of Na ortho-vanadate, 1.0 mmol of dithiothreitol, 0.5 μm of adenosine triphosphate (ATP), 10 μg/measuring point of histone IIIS, 0.2 μCi/measuring point of ^33P-gamma ATP, 0.05% NP40, 12.5% dimethyl sulfoxide]. The reaction was stopped by adding EDTA solution (250 mmol, pH 8.0, 14 μl/measuring point).
From each reaction batch, 10 μl was applied to P30 filter strips (Wallac Company), and non-incorporated ^33P-ATP was removed by subjecting the filter strips to three washing cycles for 10 minutes each in 0.5% phosphoric acid. After the filter strips were dried for one hour at 70° C., the filter strips were covered with scintillator strips (MeltiLex™ A, Wallac Company) and baked for one hour at 90° C. The amount of incorporated ^33P (substrate phosphorylation) was determined by scintillation measurement in a gamma-radiation measuring device (Wallac).

Another data set has as its system MCF-7 cells. As to the kind of experiment: Proliferation assay (crystal violet). The settings on record: MCF7, 96 h, MCF-7 human tumor cells, 4 days incubation. The data set is classed as cell-based. The method, then:
Cultivated human tumor cells (as indicated) were flattened out at a density of 5000 cells/measuring point in a 96-well multititer plate in 200 μl of the corresponding growth medium. After 24 hours, the cells of one plate (zero-point plate) were colored with crystal violet (see below), while the medium of the other plates was replaced by fresh culture medium (200 μl), to which the test substances were added in various concentrations (0 μm, as well as in the range of 0.01-30 μm; the final concentration of the solvent dimethyl sulfoxide was 0.5%). The cells were incubated for 4 days-in the presence of test substances. The cell proliferation was determined by coloring the cells with crystal violet: the cells were fixed by adding 20 μl/measuring point of a 11% glutaric aldehyde solution for 15 minutes at room temperature. After subjecting the fixed cells to three washing cycles with water, the plates were dried at room temperature. The cells were colored by adding 100 μL/measuring point of a 0.1% crystal violet solution (pH was set at 3 by adding acetic acid). […] The extinction was determined by photometry at a wavelength of 595 nm. The change of cell growth, in percent, was calculated by standardization of the measured values to the extinction values of the zero-point plate (=0%) and the extinction of the untreated (0 μm) cells (=100%).

For `CC(C)(C)c1ccc(-c2ccc3c(c2)C(=C2Nc4ccccc4C2=O)C(=O)N3)cc1` [Example 1.5], the IC50 at CDK2/CycE was 0.3 µM.

As for `O=C1Nc2ccc(-c3ccccc3)cc2C1=C1Nc2ccccc2C1=O` [Example 1.1], on CDK2/CycE, the IC50 was 1 µM.

On to `O=C1Nc2ccc(-c3ccc(Cl)cc3)cc2C1=C1Nc2ccccc2C1=O` [Example 1.4], for which the results for the IC50 on CDK2/CycE and in the data set with MCF-7 cells were 0.03 µM and 0.5 µM, respectively.

For the compound `CC(C)(C)[Si](C)(C)Oc1cccc(-c2ccc3c(c2)C(=C2Nc4ccccc4C2=O)C(=O)N3)c1` [Example 1.2], the IC50 at CDK2/CycE was found to be 0.15 µM; with MCF-7 cells, 4 µM.

`COc1ccc(-c2ccc3c(c2)/C(=C2/Nc4ccccc4C2=O)C(=O)N3)cc1` [Example 1.0, 5-(4-Methoxyphenyl)-indirubin]: the melting point was > 300 °C. Moreover, on CDK2/CycE, the IC50 is > 5 µM.

Take `O=C1Nc2ccc(-c3cc(C(F)(F)F)cc(C(F)(F)F)c3)cc2C1=C1Nc2ccccc2C1=O` [Example 1.3]: the IC50 on CDK2/CycE was determined as 0.6 µM.

Usually IC50 stands for the concentration that inhibits the measured activity by half. Usually melting point stands for the temperature, or range, at which the solid turns liquid.

The values above are taken from US20020132792A1, “Aryl-substituted indirubin derivatives, their production and use” (Schering AG, priority 2000, published 2002).
